Laboratory results published in patent publication US20080234262A1 (Wyeth, priority 2007, published 2008).
Like-named read-outs stand apart in the source and are kept apart here.

Key:
prostate line LNCap = assay: In vitro cell culture growth assay (MTS), LNCap; type: cell-based, human; details: Homo sapiens, 72 h, LNCap cells, three days after drug treatment
breast line MDA468 = assay: In vitro cell culture growth assay (MTS), MDA468; type: cell-based, human; details: Homo sapiens, 72 h, MDA468 cells, three days after drug treatment
Outline: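 Cells were plated and, one day later, exposed to inhibitors for three days; viable cell density was then measured by metabolic conversion of MTS dye, read as absorbance at 490 nm. Growth is expressed as percent of vehicle-treated control cells on the same plate.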

PI3K = PI3K (Homo sapiens, UniProt P42336); assay: Fluorescence polarization assay for PI3K; type: biochemical;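 also: PI3K kinase reaction on PIP2 with ATP, 30-60 min, product sensed by GST-GRP with red probe in fluorescence polarization (mP), controls without enzyme and at zero time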
PI3K, sequence (P42336 whole entry): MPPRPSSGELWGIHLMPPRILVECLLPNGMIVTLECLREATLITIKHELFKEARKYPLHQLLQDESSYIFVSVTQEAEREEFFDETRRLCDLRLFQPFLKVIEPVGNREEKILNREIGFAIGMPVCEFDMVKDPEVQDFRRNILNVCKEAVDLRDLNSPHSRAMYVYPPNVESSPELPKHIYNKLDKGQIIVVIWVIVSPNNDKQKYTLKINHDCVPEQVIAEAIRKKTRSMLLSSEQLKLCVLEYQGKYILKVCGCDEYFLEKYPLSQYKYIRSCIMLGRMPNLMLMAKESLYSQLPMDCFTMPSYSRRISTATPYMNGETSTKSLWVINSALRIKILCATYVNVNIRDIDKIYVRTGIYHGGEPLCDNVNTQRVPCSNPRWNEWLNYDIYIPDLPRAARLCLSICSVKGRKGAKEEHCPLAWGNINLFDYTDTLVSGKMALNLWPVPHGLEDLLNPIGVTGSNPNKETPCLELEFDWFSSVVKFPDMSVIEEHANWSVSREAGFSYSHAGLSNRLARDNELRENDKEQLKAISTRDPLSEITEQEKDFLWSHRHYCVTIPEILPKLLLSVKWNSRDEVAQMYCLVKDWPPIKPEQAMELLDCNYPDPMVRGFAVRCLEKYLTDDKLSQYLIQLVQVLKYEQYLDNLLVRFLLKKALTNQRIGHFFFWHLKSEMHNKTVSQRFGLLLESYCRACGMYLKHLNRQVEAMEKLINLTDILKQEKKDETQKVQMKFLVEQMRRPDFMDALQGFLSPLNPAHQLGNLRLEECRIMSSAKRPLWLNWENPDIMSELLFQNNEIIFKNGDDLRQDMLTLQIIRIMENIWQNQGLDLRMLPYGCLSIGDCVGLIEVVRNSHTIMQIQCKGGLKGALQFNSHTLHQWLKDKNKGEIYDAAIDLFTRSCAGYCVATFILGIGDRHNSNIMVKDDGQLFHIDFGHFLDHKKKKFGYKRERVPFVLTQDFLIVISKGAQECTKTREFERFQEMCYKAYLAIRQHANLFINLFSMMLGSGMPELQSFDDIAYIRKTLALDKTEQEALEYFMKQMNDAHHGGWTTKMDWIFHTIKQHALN
PI3K, sequence (P27986 whole entry partner): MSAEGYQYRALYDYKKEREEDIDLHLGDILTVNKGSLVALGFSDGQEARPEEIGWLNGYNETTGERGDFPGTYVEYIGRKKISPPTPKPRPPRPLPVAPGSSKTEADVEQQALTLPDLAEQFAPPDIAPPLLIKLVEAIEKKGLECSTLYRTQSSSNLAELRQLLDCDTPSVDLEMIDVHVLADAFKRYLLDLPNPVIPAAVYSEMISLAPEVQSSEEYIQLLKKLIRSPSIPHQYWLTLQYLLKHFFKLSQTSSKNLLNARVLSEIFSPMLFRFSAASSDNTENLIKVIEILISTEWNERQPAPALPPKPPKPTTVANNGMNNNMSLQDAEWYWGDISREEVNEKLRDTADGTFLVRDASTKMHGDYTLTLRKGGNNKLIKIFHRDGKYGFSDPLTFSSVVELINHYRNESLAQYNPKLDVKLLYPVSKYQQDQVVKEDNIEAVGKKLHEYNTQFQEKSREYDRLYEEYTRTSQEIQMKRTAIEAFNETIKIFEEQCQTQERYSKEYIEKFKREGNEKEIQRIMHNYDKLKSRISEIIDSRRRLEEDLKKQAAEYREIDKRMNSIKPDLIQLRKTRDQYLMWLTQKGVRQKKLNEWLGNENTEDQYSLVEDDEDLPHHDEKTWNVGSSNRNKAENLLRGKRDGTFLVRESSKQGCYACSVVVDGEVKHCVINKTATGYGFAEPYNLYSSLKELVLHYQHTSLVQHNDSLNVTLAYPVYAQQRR

| SMILES | IC50 (prostate line LNCap; LNCaP) [nM] | IC50 (PI3K; PI3Kα, read-out: PI3Kα IC50) [nM] | IC50 (prostate line LNCap) [nM] | IC50 (breast line MDA468) [nM] | IC50 (PI3K; PI3Kα IC50, PI3Kα) [nM] |
| --- | --- | --- | --- | --- | --- |
| COC(=O)N1CCC(n2ncc3c(N4CCOCC4)nc(-c4ccc(NC(=O)Oc5ccc(F)cc5)cc4)nc32)CC1 [Compound 948, methyl 4-[6-(4-{[(4-fluorophenoxy)carbonyl]amino}phenyl)-4-morpholin-4-yl-1H-pyrazolo[3,4-d]pyrimidin-1-yl]piperidine-1-carboxylate] |  |  | 220 | 700 | 8830 |
| COC(=O)N1CCC(n2ncc3c(N4CCOCC4)nc(-c4ccc(N/C(=N/C#N)Oc5ccccc5)cc4)nc32)CC1 [Compound 949, methyl 4-[6-(4-{[(Z)-(cyanoimino)(phenoxy)methyl]amino}phenyl)-4-morpholin-4-yl-1H-pyrazolo[3,4-d]pyrimidin-1-yl]piperidine-1-carboxylate] | 9800 | 1890 |  | 25000 |  |
| COC(=O)N1CCC(n2ncc3c(N4CCOCC4)nc(-c4ccc(NC(=O)Oc5ccc(Cl)cc5)cc4)nc32)CC1 [Compound 950, methyl 4-[6-(4-{[(4-chlorophenoxy)carbonyl]amino}phenyl)-4-morpholin-4-yl-1H-pyrazolo[3,4-d]pyrimidin-1-yl]piperidine-1-carboxylate] |  |  | 4900 | 17000 | 9010 |
| CC(C)(C)OC(=O)N1CCC(n2ncc3c(N4CCOCC4)nc(-c4ccc(NC(=O)Nc5ccc(F)nc5)cc4)nc32)CC1 [Compound 952, tert-butyl 4-[6-(4-{[(6-fluoropyridin-3-yl)carbamoyl]amino}phenyl)-4-morpholin-4-yl-1H-pyrazolo[3,4-d]pyrimidin-1-yl]piperidine-1-carboxylate] | 60 | 130 |  | 750 |  |
| CC(C)(C)OC(=O)N1CCC(n2ncc3c(N4CCOCC4)nc(-c4ccc(NC(=O)Nc5ccc(CO)cc5)cc4)nc32)CC1 [Compound 953, tert-butyl 4-{6-[4-({[4-(hydroxymethyl)phenyl]carbamoyl}amino)phenyl]-4-morpholin-4-yl-1H-pyrazolo[3,4-d]pyrimidin-1-yl}piperidine-1-carboxylate] | 0.8 | 7 |  | 14 |  |
| CC(C)(C)OC(=O)N1CCC(n2ncc3c(N4CCOCC4)nc(-c4ccc(NC(=O)Nc5ccc(CCO)cc5)cc4)nc32)CC1 [Compound 954, tert-butyl 4-{6-[4-({[4-(2-hydroxyethyl)phenyl]carbamoyl}amino)phenyl]-4-morpholin-4-yl-1H-pyrazolo[3,4-d]pyrimidin-1-yl}piperidine-1-carboxylate] | 9 | 10 |  | 100 |  |
| CCn1nc(C#CCN(C)C)c2c(N3CCOCC3)nc(-c3ccc(NC(=O)NC)cc3)nc21 [Compound 955, 1-(4-{3-[3-(dimethylamino)prop-1-yn-1-yl]-1-ethyl-4-morpholin-4-yl-1Hpyrazolo[3,4-d]pyrimidin-6-yl}phenyl)-3-methylurea] | 180 | 25 |  | 500 |  |
| CCn1nc(C#CCO)c2c(N3CCOCC3)nc(-c3ccc(NC(=O)Nc4cccnc4)cc3)nc21 [Compound 956, 1-{4-[1-ethyl-3-(3-hydroxyprop-1-yn-1-yl)-4-morpholin-4-yl-1H-pyrazolo[3,4-d]pyrimidin-6-yl]phenyl}-3-pyridin-3-ylurea] | 47 | 1.75 |  | 90 |  |
| Oc1cccc(-c2nc(N3CCCOCC3)c3cnn(-c4ccccc4)c3n2)c1 [Compound 962, 3-[4-(1,4-oxazepan-4-yl)-1-phenyl-1H-pyrazolo[3,4-d]pyrimidin-6-yl]phenol] | 6000 | 1090 |  | 12000 |  |
| COc1ccc(-c2nc(N3CCOCC3)c3cnn(-c4ccccc4)c3n2)cn1 [Example 4] | 20000 | 5500 |  | 38000 |  |
| Oc1cccc(-c2nc(N3CCOCC3)c3cnn(C4CCN(CC5CC5)CC4)c3n2)c1 [Example 13] | 270 | 34 |  | 1500 |  |
| COc1ccc(CN2CCC(n3ncc4c(N5CCOCC5)nc(-c5cccc(O)c5)nc43)CC2)cc1O [Example 20] | 130 | 21 |  | 700 |  |
| O=C(C1CC1)N1CCC(n2ncc3c(N4CCOCC4)nc(-c4cccc(O)c4)nc32)CC1 [Example 21] | 500 | 98 |  | 1400 |  |
| O=C(c1ccc(Cl)nc1)N1CCC(n2ncc3c(N4CCOCC4)nc(-c4cccc(O)c4)nc32)CC1 [Example 23] | 150 | 63 |  | 800 |  |
| O=C(C1CCCCC1)N1CCC(n2ncc3c(N4CCOCC4)nc(-c4cccc(O)c4)nc32)CC1 [Example 26] | 1300 | 68 |  | 4000 |  |
| CC(C)C(=O)N1CCC(n2ncc3c(N4CCOCC4)nc(-c4cccc(O)c4)nc32)CC1 [Example 29] | 400 | 59 |  | 1200 |  |
| Cc1ccc(C(=O)N2CCC(n3ncc4c(N5CCOCC5)nc(-c5ccc6[nH]ccc6c5)nc43)CC2)cc1 [Example 53] | 220 | 846 |  | 3900 |  |
| CN(C)c1ccc(CN2CCC(n3ncc4c(N5CCOCC5)nc(-c5ccc6[nH]ccc6c5)nc43)CC2)cc1 [Example 58] | 1200 | 428 |  | 1500 |  |
| c1ccc(CN2CCC(n3ncc4c(N5CCOCC5)nc(-c5cccc6[nH]ccc56)nc43)CC2)cc1 [Example 59] | 500 | 239 |  | 2600 |  |

Continued, in another order:

| IC50 (prostate line LNCap; LNCaP) [nM] | IC50 (PI3K; PI3Kα, read-out: PI3Kα IC50) [nM] | SMILES | IC50 (prostate line LNCap) [nM] | IC50 (breast line MDA468) [nM] | IC50 (PI3K; PI3Kα IC50, PI3Kα) [nM] |
| --- | --- | --- | --- | --- | --- |
| 110 | 20 | Oc1cccc(-c2nc(N3CCOCC3)c3cnn(C4CCN(Cc5ccc[nH]5)CC4)c3n2)c1 [Example 14] |  | 600 |  |
| 220 | 22 | Cc1ccc(CN2CCC(n3ncc4c(N5CCOCC5)nc(-c5cccc(O)c5)nc43)CC2)s1 [Example 18] |  | 1300 |  |
| 300 | 31 | O=C(c1ccco1)N1CCC(n2ncc3c(N4CCOCC4)nc(-c4cccc(O)c4)nc32)CC1 [Example 22] |  | 900 |  |
| 8800 | 1440 | COc1cccc(-c2nc(N3CCOCC3)c3cnn(C4CCN(Cc5ccccc5)CC4)c3n2)c1 [Example 32] |  | 10000 |  |
| 800 | 3750 | COCC(=O)N1CCC(n2ncc3c(N4CCOCC4)nc(-c4ccc5[nH]ccc5c4)nc32)CC1 [Example 40] |  | 900 |  |
| 1700 | 11000 | c1ccc2cc(-c3nc(N4CCOCC4)c4cnn(C5CCNCC5)c4n3)ccc2c1 [Example 44] |  | 1400 |  |
| 1400 | 1010 | c1ccc(CN2CCC(n3ncc4c(N5CCOCC5)nc(-c5ccc6[nH]ccc6c5)nc43)CC2)cc1 [Example 45] |  | 1900 |  |
| 590 | 780 | COc1cccc(C(=O)N2CCC(n3ncc4c(N5CCOCC5)nc(-c5ccc6[nH]ccc6c5)nc43)CC2)c1 [Example 48] |  | 2300 |  |
| 340 | 1100 | O=C(c1ccccn1)N1CCC(n2ncc3c(N4CCOCC4)nc(-c4ccc5[nH]ccc5c4)nc32)CC1 [Example 51] |  | 1700 |  |
| 2500 | 686 | Fc1ccc(CN2CCC(n3ncc4c(N5CCOCC5)nc(-c5ccc6[nH]ccc6c5)nc43)CC2)cc1 [Example 55] |  | 3000 |  |
| 2000 | 425 | Cc1ccc(CN2CCC(n3ncc4c(N5CCOCC5)nc(-c5ccc6[nH]ccc6c5)nc43)CC2)cc1 [Example 56] |  | 2700 |  |
